Laboratory results: PMC12888861, “Antibacterial activity of enmetazobactam against Acinetobacter spp.: a molecular dissection of mechanism of action and resistance determinants” (Antimicrobial Agents and Chemotherapy, 2025)

Test system: carbapenem-resistant A. baumannii (CRAB) isolates (n = 67)
Experiment: MIC, broth microdilution (EUCAST), carbapenem-resistant A. baumannii isolates
Assay type: cell-based, Acinetobacter baumannii
Details: for MIC: Acinetobacter baumannii
Description: The bacterial strains used in this study comprised 208 clinical isolates from the Spanish National Acinetobacter spp. 2020 Multicenter Collection, which was previously characterized in detail by our research group, including whole-genome sequencing, phylogenetics studies, clonal dynamics, and resistance mechanisms ([2], [29]). Additionally, a collection of A. baumannii ATCC 17978 transformants coding the blaOXA-23, blaOXA-24/40, blaOXA-51, blaOXA-58, blaOXA-143, and blaOXA-201 genes, previously constructed and described by our group ([30]), was used to determine the activity of enmetazobactam against strains carrying the main CHDLs of A. baumannii.
The antimicrobial susceptibility of the 208 Acinetobacter spp. isolates was assessed using the broth microdilution method, as described in the European Committee on Antimicrobial Susceptibility Testing (EUCAST) v.15 guidelines (http://www.eucast.org/clinical_breakpoints). […] MICs for enmetazobactam alone were assessed as well. […] Subsequently, MIC testing was also conducted with a collection of A. baumannii ATCC 17978 transformants expressing clinically relevant OXA-like carbapenemase genes.
The A. baumannii ATCC 19606 strain was used as the reference strain in all susceptibility experiments, in duplicate assays. Antibiotics were purchased from Sigma-Aldrich, except enmetazobactam and durlobactam, which were obtained from Advanz Pharma and MedChemExpress, respectively.

[1] = CHDLs-producing A. baumannii isolates (n = 67), durlobactam series, DUR fixed 4 mg/L in combinations

Work on `CC1(C)[C@H](C(=O)O)N2C(=O)C[C@H]2S1(=O)=O` [sulbactam] yielded an MIC (isolate Ab56, ST 1, ADC-75, OXA-69, OXA-23, ETZ fixed 8 mg/L in combinations) of 8 µg/mL, an MIC (isolate Ab83, ST 25, ADC-5, OXA-64, OXA-23, DUR fixed at 4 mg/L in combinations) of 32 µg/mL and an MIC (isolate Ab83, ST 25, ADC-5, OXA-64, OXA-23, ETZ fixed 8 mg/L in combinations) of 32 µg/mL. It also gave an MIC (isolate Ab109, ST 1, ADC-75, OXA-69, OXA-23, DUR fixed at 4 mg/L in combinations) of 16 µg/mL, an MIC (isolate Ab109, ST 1, ADC-75, OXA-69, OXA-23, ETZ fixed 8 mg/L in combinations) of 16 µg/mL and an MIC (isolate Ab133, ST 2, ADC-30, OXA-66, OXA-58, TEM-12, DUR fixed at 4 mg/L in combinations) of 32 µg/mL. It also gave an MIC (isolate Ab133, ST 2, ADC-30, OXA-66, OXA-58, TEM-12, ETZ fixed 8 mg/L in combinations) of 32 µg/mL, an MIC (isolate Ab134, ST 2, ADC-30, OXA-66, OXA-58, TEM-12, DUR fixed at 4 mg/L in combinations) of 32 µg/mL and an MIC (isolate Ab134, ST 2, ADC-30, OXA-66, OXA-58, TEM-12, ETZ fixed 8 mg/L in combinations) of 32 µg/mL. For the same compound, the MIC (isolate Ab137, ST 85, ADC-2, OXA-94, OXA-23, DUR fixed at 4 mg/L in combinations) was 16 µg/mL, the MIC (isolate Ab137, ST 85, ADC-2, OXA-94, OXA-23, ETZ fixed 8 mg/L in combinations) was 16 µg/mL and the MIC (isolate Ab138, ST 745, ADC-30, OXA-66, OXA-58, DUR fixed at 4 mg/L in combinations) was 4 µg/mL. The MIC (isolate Ab138, ST 745, ADC-30, OXA-66, OXA-58, ETZ fixed 8 mg/L in combinations) was 8 µg/mL, the MIC (isolate Ab140, ST 85, ADC-2, OXA-94, OXA-23, DUR fixed at 4 mg/L in combinations) was 16 µg/mL and the MIC (isolate Ab140, ST 85, ADC-2, OXA-94, OXA-23, ETZ fixed 8 mg/L in combinations) was 16 µg/mL. For the same compound, the MIC (isolate Ab141, ST 745, ADC-30, OXA-66, OXA-58, DUR fixed at 4 mg/L in combinations) was 8 µg/mL, the MIC (isolate Ab141, ST 745, ADC-30, OXA-66, OXA-58, ETZ fixed 8 mg/L in combinations) was 8 µg/mL and the MIC (isolate Ab144, ST 745, ADC-30, OXA-66, OXA-58, DUR fixed at 4 mg/L in combinations) was 8 µg/mL. The MIC (isolate Ab144, ST 745, ADC-30, OXA-66, OXA-58, ETZ fixed 8 mg/L in combinations) was 8 µg/mL, the MIC (isolate Ab169, ST 2, ADC-30, OXA-66, OXA-23, DUR fixed at 4 mg/L in combinations) was 16 µg/mL and the MIC (isolate Ab169, ST 2, ADC-30, OXA-66, OXA-23, ETZ fixed 8 mg/L in combinations) was 16 µg/mL. It also gave an MIC (isolate Ab171, ST 2, ADC-30, OXA-66, OXA-23, DUR fixed at 4 mg/L in combinations) of 16 µg/mL, an MIC (isolate Ab171, ST 2, ADC-30, OXA-66, OXA-23, ETZ fixed 8 mg/L in combinations) of 16 µg/mL and an MIC (isolate Ab173, ST 2, ISAba1-ADC-30, OXA-66, OXA-23, DUR fixed at 4 mg/L in combinations) of 32 µg/mL. The MIC (isolate Ab173, ST 2, ISAba1-ADC-30, OXA-66, OXA-23, ETZ fixed 8 mg/L in combinations) was 32 µg/mL, the MIC (isolate Ab174, ST 2, ADC-30, OXA-66, OXA-23, DUR fixed at 4 mg/L in combinations) was 16 µg/mL and the MIC (isolate Ab174, ST 2, ADC-30, OXA-66, OXA-23, ETZ fixed 8 mg/L in combinations) was 16 µg/mL. It also gave an MIC (isolate Ab179, ST 2, ADC-30, OXA-66, OXA-23, DUR fixed at 4 mg/L in combinations) of 16 µg/mL, an MIC (isolate Ab179, ST 2, ADC-30, OXA-66, OXA-23, ETZ fixed 8 mg/L in combinations) of 16 µg/mL and an MIC (isolate Ab180, ST 2, ADC-30, OXA-66, OXA-24/40, DUR fixed at 4 mg/L in combinations) of 4 µg/mL. The MIC (isolate Ab180, ST 2, ADC-30, OXA-66, OXA-24/40, ETZ fixed 8 mg/L in combinations) was 4 µg/mL, the MIC (isolate Ab181, ST 2, ADC-30, OXA-66, OXA-23, DUR fixed at 4 mg/L in combinations) was 16 µg/mL and the MIC (isolate Ab181, ST 2, ADC-30, OXA-66, OXA-23, ETZ fixed 8 mg/L in combinations) was 16 µg/mL. It also gave an MIC (isolate Ab182, ST 2, ADC-30, OXA-66, OXA-23, DUR fixed at 4 mg/L in combinations) of 8 µg/mL, an MIC (isolate Ab182, ST 2, ADC-30, OXA-66, OXA-23, ETZ fixed 8 mg/L in combinations) of 8 µg/mL and an MIC (isolate Ab183, ST 2, ADC-30, OXA-66, OXA-23, DUR fixed at 4 mg/L in combinations) of 8 µg/mL. It also gave an MIC (isolate Ab183, ST 2, ADC-30, OXA-66, OXA-23, ETZ fixed 8 mg/L in combinations) of 8 µg/mL, an MIC (isolate Ab184, ST 2, ADC-30, OXA-66, OXA-23, DUR fixed at 4 mg/L in combinations) of 16 µg/mL and an MIC (isolate Ab184, ST 2, ADC-30, OXA-66, OXA-23, ETZ fixed 8 mg/L in combinations) of 16 µg/mL. It also gave an MIC (isolate Ab186, ST 2, ADC-30, OXA-66, OXA-23, DUR fixed at 4 mg/L in combinations) of 16 µg/mL, an MIC (isolate Ab186, ST 2, ADC-30, OXA-66, OXA-23, ETZ fixed 8 mg/L in combinations) of 16 µg/mL and an MIC (isolate Ab191, ST 2, ADC-30, OXA-66, OXA-23, DUR fixed at 4 mg/L in combinations) of 16 µg/mL. It also gave an MIC (isolate Ab191, ST 2, ADC-30, OXA-66, OXA-23, ETZ fixed 8 mg/L in combinations) of 16 µg/mL, an MIC (isolate Ab192, ST 2, ADC-30, OXA-66, OXA-23, DUR fixed at 4 mg/L in combinations) of 16 µg/mL and an MIC (isolate Ab192, ST 2, ADC-30, OXA-66, OXA-23, ETZ fixed 8 mg/L in combinations) of 16 µg/mL. For the same compound, the MIC (isolate Ab194, ST 2, ADC-30, OXA-66, OXA-23, DUR fixed at 4 mg/L in combinations) was 16 µg/mL, the MIC (isolate Ab194, ST 2, ADC-30, OXA-66, OXA-23, ETZ fixed 8 mg/L in combinations) was 16 µg/mL and the MIC (isolate Ab199, ST 2, ADC-30, OXA-66, OXA-23, DUR fixed at 4 mg/L in combinations) was 16 µg/mL. For the same compound, the MIC (isolate Ab199, ST 2, ADC-30, OXA-66, OXA-23, ETZ fixed 8 mg/L in combinations) was 16 µg/mL, the MIC (isolate Ab201, ST 2, ADC-30, OXA-66, OXA-23, DUR fixed at 4 mg/L in combinations) was 16 µg/mL and the MIC (isolate Ab201, ST 2, ADC-30, OXA-66, OXA-23, ETZ fixed 8 mg/L in combinations) was 16 µg/mL. For the same compound, the MIC (isolate Ab204, ST 2, ADC-30, OXA-66, OXA-23, DUR fixed at 4 mg/L in combinations) was 16 µg/mL, the MIC (isolate Ab204, ST 2, ADC-30, OXA-66, OXA-23, ETZ fixed 8 mg/L in combinations) was 8 µg/mL and the MIC50 [1] was 16 µg/mL. The MIC90 [1] was 32 µg/mL, the “MIC distribution 0.12” value (cumulative % of CHDLs-producing A. baumannii isolates (n = 67) at MIC 0.12 mg/L, DUR fixed 4 mg/L in combinations) was 0.0% and the “MIC distribution 0.25” value (cumulative % of CHDLs-producing A. baumannii isolates (n = 67) at MIC 0.25 mg/L, DUR fixed 4 mg/L in combinations) was 0.0%. The “MIC distribution 0.5” value (cumulative % of CHDLs-producing A. baumannii isolates (n = 67) at MIC 0.5 mg/L, DUR fixed 4 mg/L in combinations) was 0.0%, the “MIC distribution 1” value (cumulative % of CHDLs-producing A. baumannii isolates (n = 67) at MIC 1 mg/L, DUR fixed 4 mg/L in combinations) was 0.0% and the “MIC distribution 2” value (cumulative % of CHDLs-producing A. baumannii isolates (n = 67) at MIC 2 mg/L, DUR fixed 4 mg/L in combinations) was 13.4%. The “MIC distribution 4” value (cumulative % of CHDLs-producing A. baumannii isolates (n = 67) at MIC 4 mg/L, DUR fixed 4 mg/L in combinations) was 20.9%, the “MIC distribution 8” value (cumulative % of CHDLs-producing A. baumannii isolates (n = 67) at MIC 8 mg/L, DUR fixed 4 mg/L in combinations) was 34.3% and the “MIC distribution 16” value (cumulative % of CHDLs-producing A. baumannii isolates (n = 67) at MIC 16 mg/L, DUR fixed 4 mg/L in combinations) was 89.6%. The “MIC distribution 32” value (cumulative % of CHDLs-producing A. baumannii isolates (n = 67) at MIC 32 mg/L, DUR fixed 4 mg/L in combinations) was 100%, the “MIC distribution 0.12” value (cumulative share of CRAB isolates (n = 67) at MIC 0.12 mg/L, ETZ fixed 8 mg/L in combinations) was 0 and the “MIC distribution 0.25” value (cumulative share of CRAB isolates (n = 67) at MIC 0.25 mg/L, ETZ fixed 8 mg/L in combinations) was 0. The “MIC distribution 0.5” value (cumulative share of CRAB isolates (n = 67) at MIC 0.5 mg/L, ETZ fixed 8 mg/L in combinations) was 0, the “MIC distribution 1” value (cumulative share of CRAB isolates (n = 67) at MIC 1 mg/L, ETZ fixed 8 mg/L in combinations) was 0 and the “MIC distribution 2” value (cumulative share of CRAB isolates (n = 67) at MIC 2 mg/L, ETZ fixed 8 mg/L in combinations) was 14.9. For the same compound, the “MIC distribution 4” value (cumulative share of CRAB isolates (n = 67) at MIC 4 mg/L, ETZ fixed 8 mg/L in combinations) was 17.9, the “MIC distribution 8” value (cumulative share of CRAB isolates (n = 67) at MIC 8 mg/L, ETZ fixed 8 mg/L in combinations) was 34.3 and the “MIC distribution 16” value (cumulative share of CRAB isolates (n = 67) at MIC 16 mg/L, ETZ fixed 8 mg/L in combinations) was 89.6. For the same compound, the “MIC distribution 32” value (cumulative share of CRAB isolates (n = 67) at MIC 32 mg/L, ETZ fixed 8 mg/L in combinations) was 100 and the “MIC distribution 64” value (cumulative share of CRAB isolates (n = 67) at MIC 64 mg/L, ETZ fixed 8 mg/L in combinations) was 100.
